By pEC50 is commonly meant the negative decadic logarithm of the EC50, by convention in mol/L. Usually pIC50 stands for the negative decadic logarithm of the IC50, by convention in mol/L. A low value points to a high IC50.

pEC50, pIC50: −log10 of the molar value. Where a name gives a salt, the structure may show the parent alone. Read-outs that look alike come from different tables or passages of the source.

In experiment [1] the test system is phospho-akt (Thr308) in PC-3 cells. Briefly: Inhibition of phospho-akt (Thr308) in PC-3 cells, MSD phospho-akt 308 ELISA kit. The class given is cell-based. Conditions: Homo sapiens, 2 hours, no serum, read-out: EC50. In a few lines: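 PC-3 cells were seeded overnight in growth medium with 10% FBS, then exposed to compound serially diluted threefold in serum-free medium for 2 hours. Lysates were captured overnight at 4 degrees on MSD plates and phospho-Akt Thr308 was detected electrochemiluminescently, against DMSO high and 5 μM wortmannin low controls.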

A further experiment addresses PDK1 (Homo sapiens (Human), UniProt O15530). As to the kind of experiment: PDK1 kinase assay (coupled PDK1/AKT/FAM-crosstide assay, IMAP fluorescence polarization). In kind it is biochemical. In outline:
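GST-tagged human PDK1 (aa 51-359, 0.75 nM) from insect cells activated unphosphorylated GST-AKT2 (aa 140-467–PIFtide fusion, 10 nM), which phosphorylated 100 nM FAM-crosstide; 40 μM ATP, pH 7.2 Tris/MgCl2, 30 min at 25° C. IMAP fluorescence polarization read-out; ΔmP versus compound concentration fitted with a 4-parameter curve.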

Where [2] appears, read: inhibition of P308 Akt in PC-3 cells using MSD.
Where [3] appears, read: inhibition of P308 Akt in PC-3 cells, MSD.
The mark [4] stands for this setting: inhibition of phospo-PDK1 in vitro.
The mark [5] stands for this setting: PC-3, 2 h, inhibition of P308 Akt in PC-3 cells, MSD.

Sequence of PDK1 (O15530 51-359): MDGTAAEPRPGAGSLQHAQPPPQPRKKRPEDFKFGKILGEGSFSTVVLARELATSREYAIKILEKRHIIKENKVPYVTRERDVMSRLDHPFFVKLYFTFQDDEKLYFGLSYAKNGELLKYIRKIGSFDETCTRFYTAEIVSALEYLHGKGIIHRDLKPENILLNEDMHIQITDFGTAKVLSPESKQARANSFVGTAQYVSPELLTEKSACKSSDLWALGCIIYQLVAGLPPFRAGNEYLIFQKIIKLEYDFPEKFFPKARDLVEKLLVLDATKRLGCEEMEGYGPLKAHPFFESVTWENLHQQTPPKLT

Consider `Nc1n[nH]c2ncc(-c3ccc(CNc4ncc(C(F)(F)F)cc4C(=O)NCc4ccc(F)c(F)c4)cc3)cc12` [Example 132, 2-(4-(3-amino-1H-pyrazolo [3,4-b]pyridin-5-yl)benzylamino)-N-(3,4-difluorobenzyl)-5-(trifluoromethyl) nicotinamide], for which the pEC50 in experiment [1] (setting [2]) was over 6.00. At PDK1 (inhibition of PDK1 in vitro), the negative-log IC50 (pIC50) is over 7.00.

Regarding `Nc1ncnc2ccc(-c3nc(CNc4ncccc4C(=O)NCc4ccc(F)c(F)c4)cs3)cc12` [Ex. 6.8, 2-({[2-(4-aminoquinazolin-6-yl)-1,3-thiazol-4-yl]methyl}amino)-N-(3,4-difluoro-benzyl) pyridine-3-carboxamide], the negative logarithm of the EC50 (pEC50) in experiment [1] (setting [3]) was under 5.00. For the same compound, at PDK1 (setting [4]), the negative logarithm of the IC50 (pIC50) was over 7.00.

As to `C[C@H](NC(=O)c1cc(C(F)(F)F)cnc1NCc1ccc(-c2cnc3[nH]ncc3c2)cc1)c1ccc(F)cc1` [Example 246, N-[(S)-1-(4-Fluoro-phenyl)-ethyl]-2-[4-(1H-pyrazolo[3,4-b]pyridin-5-yl)-benzylamino]-5-trifluoromethyl-nicotinamide], the pEC50 in experiment [1] (setting [2]) was over 6.00. The compound further showed a negative logarithm of the IC50 (pIC50) against PDK1 (inhibition of PDK1 in vitro) of over 7.00.

Regarding `O=C(NCc1ccc(F)c(F)c1)c1ccccc1NCc1cccc(-c2c[nH]c3ncccc23)c1` [Example 1.20, 2-(3-(1H-pyrrolo[2,3-b]pyridin-3-yl)benzylamino)-N-(3,4-difluorobenzyl)benzamide], the pEC50 in experiment [1] (setting [3]) was 5.00 to 6.00. At PDK1 (setting [4]), this compound had a pIC50 of over 7.00.

For `CCS(=O)(=O)Nc1cnc(NCc2ccc(-c3ccc4ncnc(N)c4c3)s2)c(C(=O)NCc2ccc(F)c(F)c2)c1` [Example 8.6.2, 2-({[5-(4-aminoquinazolin-6-yl)thiophen-2-yl]methyl}amino)-N-(3,4-difluorobenzyl)-5-[(ethylsulfonyl)amino] pyridine-3-carboxamide], in experiment [1] (setting [5]), the pEC50 is over 6.00. The compound further had a pIC50 at PDK1 (setting [4]) of 6.00 to 7.00.

As for `C[C@H](NC(=O)c1nccnc1NC/C=C/c1ccc2c(c1)NC(=O)/C2=C\c1cnc[nH]1)c1ccc(F)cc1` [Example 15.20, 3-((E)-3-((Z)-3-((1H-imidazol-5-yl)methylene)-2-oxoindolin-6-yl)allylamino)-N-((S)-1-(4-fluorophenyl)ethyl) pyrazine-2-carboxamide], the pEC50 in experiment [1] (setting [3]) is over 6.00. Also, the negative-log IC50 (pIC50) at PDK1 (setting [4]) is over 7.00.

With `C[C@H](NC(=O)c1cc(F)cnc1NCc1ccc(-c2ccc3ncnc(N)c3c2)s1)c1ccc(F)c(F)c1` [Example 7.13, 2-({[5-(4-aminoquinazolin-6-yl)thiophen-2-yl]methyl}amino)-N-[(1S)-1-(3,4-difluorophenyl)ethyl]-5-fluoropyridine-3-carboxamide], in experiment [1] (setting [3]), the pEC50 is over 6.00. At PDK1 (setting [4]), this compound showed a pIC50 of 6.00 to 7.00.

For the compound `O=C(NCC1CCCC1)c1cccnc1NCc1ccc(-c2c[nH]c3ncccc23)s1` [Example 1.19, 2-(((5-(1H-pyrrolo[2,3-b]pyridin-3-yl)thiophen-2-yl)methyl)amino)-N-4-(cyclopentylmethyl) nicotinamide], in experiment [1] (setting [3]), the pEC50 was 5.00 to 6.00. Moreover, at PDK1 (setting [4]), the pIC50 is 5.30 to 6.00.

Turning to `C[C@H](NC(=O)c1cccnc1NCc1ccc(-c2ccc3ncc(-n4ccnc4N)nc3c2)s1)c1ccc(F)c(F)c1` [Example 4.32, (S)-2-(((5-(3-(2-amino-1H-imidazol-1-yl)quinoxalin-6-yl)thiophen-2-yl)methyl)amino)-N-(1-(3,4-difluorophenyl)ethyl) nicotinamide], the pEC50 in experiment [1] (setting [5]) is under 5.00. Moreover, the pIC50 against PDK1 (setting [4]) is 6.00 to 7.00.

Regarding `CC(C)Oc1cc(CNc2ncccc2C(=O)Nc2c(F)cccc2F)cc(-c2c[nH]c3ncc(C(=O)NC4CC4)cc23)c1` [Example 4.1.12, N-cyclopropyl-3-{3-[({3-[(2,6-difluorophenyl)carbamoyl]pyridin-2-yl}amino)methyl]-5-(propan-2-yloxy)phenyl}-1H-pyrrolo[2,3-b] pyridine-5-carboxamide], the pEC50 in experiment [1] (setting [3]) is under 5.00. Moreover, the negative-log IC50 (pIC50) against PDK1 (setting [4]) was 5.30 to 6.00.

With `Nc1ncnc2ccc(-c3ccc(CNc4ncccc4C(=O)N(Cc4cncc(F)c4)Cc4cncc(F)c4)s3)cc12` [Example 3.64, 2-(((5-(4-aminoquinazolin-6-yl)thiophen-2-yl)methyl)amino)-N,N-bis((5-fluoropyridin-3-yl)methyl)nicotinamide (TFA salt)], the negative logarithm of the EC50 (pEC50) in experiment [1] (setting [3]) was 5.00 to 6.00. In addition, at PDK1 (setting [4]), the pIC50 is under 5.30.

For the compound `C[C@H](NC(=O)c1cc(C#N)cnc1NCc1cnc(-c2cnc3[nH]ncc3c2)s1)c1ccc(F)cc1` [Example 67, 5-Cyano-N-[(S)-1-(4-fluoro-phenyl)-ethyl]-2-{[2-(1H-pyrazolo[3,4-b]pyridin-5-yl)-thiazol-5-ylmethyl]-amino}-nicotinamide], in experiment [1] (setting [2]), the pEC50 is 5.00 to 6.00. Further, the pIC50 against PDK1 (inhibition of PDK1 in vitro) was over 7.00.

Consider `C[C@H](NC(=O)c1cc(C#N)cnc1NCc1ccc(-c2cnc(N)c(C3=CCNCC3)n2)cc1)c1ccc(F)cc1` [Example 233, 2-{4-[5-Amino-6-(1,2,3,6-tetrahydro-pyridin-4-yl)-pyrazin-2-yl]-benzylamino}-5-cyano-N-[(S)-1-(4-fluoro-phenyl)-ethyl]-nicotinamide], for which, in experiment [1] (setting [2]), the pEC50 was over 6.00. Further, the pIC50 at PDK1 (inhibition of PDK1 in vitro) is over 7.00.

As to `C[C@H](NC(=O)c1cc(F)cnc1NCc1ccc(-c2cc3c(N)ncnc3cn2)s1)c1ccc(F)cc1`, in experiment [1] (setting [3]), the pEC50 was 5.00 to 6.00. On PDK1 (setting [4]), this compound had a negative logarithm of the IC50 (pIC50) of 6.00 to 7.00.

With `O=C(NCc1ccc(F)c(F)c1)c1cccnc1NCc1csc(-c2ccc3ncnc(NC4CC4)c3c2)n1` [Ex. 6.9, 2-[({2-[4-(cyclopropyl-amino)quinazolin-6-yl)-1,3-thiazol-4-yl}methyl)amino]-N-(3,4-difluorobenzyl) pyridine-3-carboxamide], the pEC50 in experiment [1] (setting [3]) was under 5.00. The pIC50 against PDK1 (setting [4]) is over 7.00.

On to `Cn1cnc2cnc(-c3ccc(CNc4ncccc4C(=O)NCc4ccc(F)c(F)c4)s3)cc21` [Example 8.14.3, N-(3,4-difluorobenzyl)-2-({[5-(1-methyl-1H-imidazo [4,5-c]pyridin-6-yl)thiophen-2-yl]methyl}amino)pyridine-3-carboxamide], for which the negative logarithm of the EC50 (pEC50) in experiment [1] (setting [3]) is 5.00 to 6.00. In addition, on PDK1 (setting [4]), the negative logarithm of the IC50 (pIC50) was under 5.30.

For `Cn1cnc(CNC(=O)c2cc(C(F)(F)F)cnc2NCc2ccc(-c3cnc4[nH]nc(N)c4c3)cc2)c1` [Example 270, 2-(4-(3-amino-1H-pyrazolo [3,4-b]pyridin-5-yl)benzylamino)-N-((1-methyl-1H-imidazol-4-yl)methyl)-5-(trifluoromethyl) nicotinamide], the pEC50 in experiment [1] (setting [2]) is 5.00 to 6.00. Moreover, at PDK1 (inhibition of PDK1 in vitro), the pIC50 was 5.30 to 6.00.

On to `CCc1nc(C)c(/C=C2\C(=O)Nc3cc(/C=C/CNc4ncccc4C(=O)NCc4ccc(F)c(F)c4)ccc32)[nH]1` [Example 15.11, N-(3,4-Difluoro-benzyl)-2-((E)-3-{3-[1-(2-ethyl-5-methyl-3H-imidazol-4-yl)-meth-(Z)-ylidene]-2-oxo-2,3-dihydro-1H-indol-6-yl}-allylamino)-nicotinamide], for which the pEC50 in experiment [1] (setting [3]) is over 6.00. This compound gave a pIC50 against PDK1 (setting [4]) of over 7.00.

In the case of `CN1CCN(Cc2ccc(NC(=O)c3cc(C(F)(F)F)cnc3NCc3ccc(-c4cnc5[nH]nc(N)c5c4)cc3)cc2)CC1` [Example 285, 2-(4-(3-amino-1H-pyrazolo [3,4-b]pyridin-5-yl)benzylamino)-N-(4-((4-methylpiperazin-1-yl)methyl)phenyl)-5-(trifluoromethyl)nicotinamide], the pEC50 in experiment [1] (setting [2]) was under 5.00. The negative logarithm of the IC50 (pIC50) on PDK1 (inhibition of PDK1 in vitro) was 5.30 to 6.00.

For `C[C@@H](c1ccc(F)cc1)n1cnc2ccnc(NCc3ccc(-c4ccc5ncnc(N)c5c4)s3)c2c1=O` [Ex. 7.9], the pEC50 in experiment [1] (setting [3]) was over 6.00. The compound also showed a negative-log IC50 (pIC50) against PDK1 (setting [4]) of over 7.00.

`Cc1nc[nH]c1/C=C1\C(=O)Nc2cc(/C=C/CNc3ncccc3C(=O)NCc3ccc(F)c(F)c3)ccc21` [Example 15.7, N-(3,4-Difluoro-benzyl)-2-((E)-3-{3-[1-(5-methyl-3H-imidazol-4-yl)-meth-(Z)-ylidene]-2-oxo-2,3-dihydro-1H-indol-6-yl}-allylamino)-nicotinamide]: the pEC50 in experiment [1] (setting [3]) is over 6.00. The pIC50 on PDK1 (setting [4]) was over 7.00.

As to `O=C(c1cccnc1NCc1cccc(-c2c[nH]c3ncccc23)c1)N1CCCCC1` [Example 1.13, Piperidin-1-yl(2-{[3-(1H-pyrrolo [2,3-b]pyridin-3-yl)benzyl]amino}pyridin-3-yl)methanone], in experiment [1] (setting [3]), the pEC50 is under 5.00. This compound showed a negative logarithm of the IC50 (pIC50) against PDK1 (setting [4]) of under 5.30.

With `CNC(=O)c1cc(S(=O)(=O)NC(C)(C)C)cnc1NCc1ccc(-c2ccc3ncnc(N)c3c2)s1` [Example 8.6.18, 2-(((5-(4-aminoquinazolin-6-yl)thiophen-2-yl)methyl)amino)-5-(N-t-butylsulfamoyl)-N-methylnicotinamide], in experiment [1] (setting [3]), the pEC50 was 5.00 to 6.00. At PDK1 (setting [4]), this compound gave a pIC50 of under 5.30.

For the compound `C[C@H](NC(=O)c1cccnc1NCc1ccc(-c2c[nH]c3ncnc(N)c23)s1)c1ccc(F)cc1` [Example 2.20, (S)-2-(((5-(4-amino-7H-pyrrolo[2,3-d]pyrimidin-5-yl)thiophen-2-yl)methyl)amino)-N-(1-(4-fluorophenyl)ethyl)nicotinamide], the negative-log EC50 (pEC50) in experiment [1] (setting [3]) is over 6.00. The compound further had a pIC50 at PDK1 (setting [4]) of 6.00 to 7.00.

For the compound `CNC(=O)C[C@@H](Nc1ncc(C#N)cc1C(=O)N[C@@H](C)c1ccc(F)cc1)c1ccc(-c2c[nH]c3ncnc(N)c23)cc1` [Example 47, 2-((R)-1-(4-(4 - amino-7H-pyrrolo[2,3-d]pyrimidin-5-yl)phenyl)-3-(methylamino)-3-oxopropylamino)-5-cyano-N-((S)-1-(4-fluorophenyl)ethyl)nicotinamide], the pEC50 in experiment [1] (setting [2]) is under 5.00. In addition, the pIC50 at PDK1 (inhibition of PDK1 in vitro) was over 7.00.

The values are drawn from patent publication US10030016B2 (Sunesis Pharmaceuticals, Inc., priority 2009, dated 2018).
